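Five compound concentrations were applied to cells in 96-well plates for 48 hours; endpoints were derived by simple linear interpolation of the resulting dose-response curve. TGI: total growth inhibition.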
Assays:
Assay in all cases: growth of human tumour cells (NCI), 48 h
786-0 renal = system: 786-0 renal
A498 renal = system: A498 renal
ACHN renal = system: ACHN renal
BT-549 breast = system: BT-549 breast
CAKI-1 renal = system: CAKI-1 renal
CCRF-CEM leukemia = system: CCRF-CEM leukemia
COLO 205 colon = system: COLO 205 colon
DU-145 prostate = system: DU-145 prostate
EKVX NSCLC = system: EKVX NSCLC
HCC-2998 colon = system: HCC-2998 colon
HCT-116 colon = system: HCT-116 colon
HCT-15 colon = system: HCT-15 colon
HL-60(TB) leukemia = system: HL-60(TB) leukemia
HOP-62 NSCLC = system: HOP-62 NSCLC
HOP-92 NSCLC = system: HOP-92 NSCLC
HS 578T breast = system: HS 578T breast
HT29 colon = system: HT29 colon
IGROV1 ovarian = system: IGROV1 ovarian
K-562 leukemia = system: K-562 leukemia
KM12 colon = system: KM12 colon
LOX IMVI melanoma = system: LOX IMVI melanoma
MALME-3M melanoma = system: MALME-3M melanoma
MCF7 breast = system: MCF7 breast
MDA-MB-231 breast = system: MDA-MB-231 breast
MDA-MB-435 = system: MDA-MB-435
MDA-N = system: MDA-N
NCI-H226 lung = system: NCI-H226 lung
NCI-H23 lung = system: NCI-H23 lung
NCI-H460 lung = system: NCI-H460 lung
NCI-H522 lung = system: NCI-H522 lung
NCI/ADR-RES ovarian = system: NCI/ADR-RES ovarian
OVCAR-3 ovarian = system: OVCAR-3 ovarian
OVCAR-4 ovarian = system: OVCAR-4 ovarian
OVCAR-5 ovarian = system: OVCAR-5 ovarian
OVCAR-8 ovarian = system: OVCAR-8 ovarian
PC-3 prostate = system: PC-3 prostate
RPMI-8226 leukemia = system: RPMI-8226 leukemia
RXF 393 renal = system: RXF 393 renal
SF-268 CNS = system: SF-268 CNS
SF-295 CNS = system: SF-295 CNS
SF-539 CNS = system: SF-539 CNS
SK-MEL-2 melanoma = system: SK-MEL-2 melanoma
SK-MEL-28 melanoma = system: SK-MEL-28 melanoma
SK-MEL-5 melanoma = system: SK-MEL-5 melanoma
SK-OV-3 ovarian = system: SK-OV-3 ovarian
SN12C renal = system: SN12C renal
SNB-75 CNS = system: SNB-75 CNS
SR leukemia = system: SR leukemia
SW-620 colon = system: SW-620 colon
T-47D breast = system: T-47D breast
TK-10 renal = system: TK-10 renal
U251 CNS = system: U251 CNS
UACC-257 melanoma = system: UACC-257 melanoma
UACC-62 melanoma = system: UACC-62 melanoma
A549 NSCLC = system: A549 NSCLC
M14 melanoma = system: M14 melanoma
MOLT-4 leukemia = system: MOLT-4 leukemia
SNB-19 CNS = system: SNB-19 CNS
UO-31 renal = system: UO-31 renal

Cc1c(-c2ccccc2)c(C#N)c2nnn(-c3ccc([N+](=O)[O-])cc3)c(=O)n12
TGI (786-0 renal): 18.4 µM
TGI (A498 renal): 49 µM
TGI (ACHN renal): > 100 µM
TGI (BT-549 breast): 69.9 µM
TGI (CAKI-1 renal): > 100 µM
TGI (CCRF-CEM leukemia): 58.2 µM
TGI (COLO 205 colon): 40.6 µM
TGI (DU-145 prostate): 23.2 µM
TGI (EKVX NSCLC): 23.8 µM
TGI (HCC-2998 colon): > 100 µM
TGI (HCT-116 colon): > 100 µM
TGI (HCT-15 colon): > 100 µM
TGI (HL-60(TB) leukemia): 13.9 µM
TGI (HOP-62 NSCLC): 45 µM
TGI (HOP-92 NSCLC): 45.4 µM
TGI (HS 578T breast): > 100 µM
TGI (HT29 colon): 75.3 µM
TGI (IGROV1 ovarian): 25.3 µM
TGI (K-562 leukemia): > 100 µM
TGI (KM12 colon): > 100 µM
TGI (LOX IMVI melanoma): 42.8 µM
TGI (MALME-3M melanoma): > 100 µM
TGI (MCF7 breast): 68.7 µM
TGI (MDA-MB-231 breast): 27.2 µM
TGI (MDA-MB-435): > 100 µM
TGI (MDA-N): > 100 µM
TGI (NCI-H226 lung): 34 µM
TGI (NCI-H23 lung): 86.5 µM
TGI (NCI-H460 lung): > 100 µM
TGI (NCI-H522 lung): 33 µM
TGI (NCI/ADR-RES ovarian): 64.7 µM
TGI (OVCAR-3 ovarian): 39.8 µM
TGI (OVCAR-4 ovarian): 38.2 µM
TGI (OVCAR-5 ovarian): 95.4 µM
TGI (OVCAR-8 ovarian): 23.6 µM
TGI (PC-3 prostate): 9.54 µM
TGI (RPMI-8226 leukemia): > 100 µM
TGI (RXF 393 renal): 48.2 µM
TGI (SF-268 CNS): 45.3 µM
TGI (SF-295 CNS): 74.9 µM
TGI (SF-539 CNS): 27 µM
TGI (SK-MEL-2 melanoma): 28.6 µM
TGI (SK-MEL-28 melanoma): > 100 µM
TGI (SK-MEL-5 melanoma): > 100 µM
TGI (SK-OV-3 ovarian): > 100 µM
TGI (SN12C renal): 69.2 µM
TGI (SNB-75 CNS): 44.1 µM
TGI (SR leukemia): > 100 µM
TGI (SW-620 colon): > 100 µM
TGI (T-47D breast): > 100 µM
TGI (TK-10 renal): 90 µM
TGI (U251 CNS): 21.5 µM
TGI (UACC-257 melanoma): > 100 µM
TGI (UACC-62 melanoma): > 100 µM

CC(=O)OCC1OC(n2c(-c3ccc(C)cc3)cc(-c3ccco3)c(C#N)c2=S)C(OC(C)=O)C(OC(C)=O)C1OC(C)=O (configuration not stated)
TGI (A498 renal): > 100 µM
TGI (A549 NSCLC): > 100 µM
TGI (ACHN renal): > 100 µM
TGI (BT-549 breast): > 100 µM
TGI (CAKI-1 renal): > 100 µM
TGI (CCRF-CEM leukemia): > 100 µM
TGI (COLO 205 colon): > 100 µM
TGI (DU-145 prostate): > 100 µM
TGI (EKVX NSCLC): > 100 µM
TGI (HCC-2998 colon): > 100 µM
TGI (HCT-116 colon): > 100 µM
TGI (HCT-15 colon): > 100 µM
TGI (HL-60(TB) leukemia): > 100 µM
TGI (HOP-62 NSCLC): > 100 µM
TGI (HOP-92 NSCLC): 81.1 µM
TGI (HS 578T breast): > 100 µM
TGI (HT29 colon): > 100 µM
TGI (IGROV1 ovarian): > 100 µM
TGI (K-562 leukemia): > 100 µM
TGI (KM12 colon): > 100 µM
TGI (LOX IMVI melanoma): > 100 µM
TGI (M14 melanoma): > 100 µM
TGI (MALME-3M melanoma): > 100 µM
TGI (MCF7 breast): > 100 µM
TGI (MDA-MB-231 breast): 78.4 µM
TGI (MDA-MB-435): > 100 µM
TGI (MDA-N): > 100 µM
TGI (MOLT-4 leukemia): > 100 µM
TGI (NCI-H226 lung): > 100 µM
TGI (NCI-H23 lung): > 100 µM
TGI (NCI-H460 lung): > 100 µM
TGI (NCI-H522 lung): > 100 µM
TGI (NCI/ADR-RES ovarian): > 100 µM
TGI (OVCAR-3 ovarian): > 100 µM
TGI (OVCAR-4 ovarian): > 100 µM
TGI (OVCAR-5 ovarian): > 100 µM
TGI (OVCAR-8 ovarian): > 100 µM
TGI (PC-3 prostate): > 100 µM
TGI (RPMI-8226 leukemia): > 100 µM
TGI (RXF 393 renal): > 100 µM
TGI (SF-268 CNS): > 100 µM
TGI (SF-295 CNS): > 100 µM
TGI (SF-539 CNS): 36.1 µM
TGI (SK-MEL-2 melanoma): > 100 µM
TGI (SK-MEL-28 melanoma): > 100 µM
TGI (SK-MEL-5 melanoma): > 100 µM
TGI (SK-OV-3 ovarian): > 100 µM
TGI (SN12C renal): > 100 µM
TGI (SNB-19 CNS): > 100 µM
TGI (SNB-75 CNS): > 100 µM
TGI (SR leukemia): > 100 µM
TGI (SW-620 colon): > 100 µM
TGI (T-47D breast): > 100 µM
TGI (TK-10 renal): > 100 µM
TGI (U251 CNS): > 100 µM
TGI (UACC-257 melanoma): > 100 µM
TGI (UACC-62 melanoma): 45.2 µM
TGI (UO-31 renal): > 100 µM
